Data on one compound can be found in patent publication US9862708B2, “Pyrazolone compounds and uses thereof” (Tempest Therapeutics, Inc., priority 2014, dated 2018).

What all share (type): cell-based
In one assay the target is T1, human PPARα (Homo sapiens, UniProt Q07869).
T1 construct: host or cells: proprietary non-human mammalian cells
T1 sequence (Q07869 1-468): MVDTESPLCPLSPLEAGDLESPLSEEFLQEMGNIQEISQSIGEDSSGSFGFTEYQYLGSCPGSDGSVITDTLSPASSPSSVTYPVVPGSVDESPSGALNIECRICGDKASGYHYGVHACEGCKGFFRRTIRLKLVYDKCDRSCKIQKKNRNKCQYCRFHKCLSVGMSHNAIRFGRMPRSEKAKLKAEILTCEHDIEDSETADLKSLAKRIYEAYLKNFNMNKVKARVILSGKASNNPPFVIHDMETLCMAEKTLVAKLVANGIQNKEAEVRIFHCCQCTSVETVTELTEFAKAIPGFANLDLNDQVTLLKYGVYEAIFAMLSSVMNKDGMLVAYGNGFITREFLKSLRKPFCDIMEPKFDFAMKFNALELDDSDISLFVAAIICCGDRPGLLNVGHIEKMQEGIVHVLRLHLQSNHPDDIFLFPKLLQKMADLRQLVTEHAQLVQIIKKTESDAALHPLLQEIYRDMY
Briefly: Human PPARα Reporter Assay (luciferase, Indigo Biosciences). In outline: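 Agonist or antagonist activity read as luciferase light from engineered reporter cells carrying human PPARα and a responsive reporter gene. Cells got compound immediately on dispensing, incubated overnight, then treatment media swapped for luciferase detection reagent.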
A general note: In a reporter assay the amount or activity of a reporter protein is the signal.

A further assay deals with T2, PPAR beta/delta (Homo sapiens, UniProt Q03181).
T2 construct: host or cells: engineered reporter cells of the kit (analogous to the PPARα kit: non-human mammalian)
T2 sequence (Q03181 1-441): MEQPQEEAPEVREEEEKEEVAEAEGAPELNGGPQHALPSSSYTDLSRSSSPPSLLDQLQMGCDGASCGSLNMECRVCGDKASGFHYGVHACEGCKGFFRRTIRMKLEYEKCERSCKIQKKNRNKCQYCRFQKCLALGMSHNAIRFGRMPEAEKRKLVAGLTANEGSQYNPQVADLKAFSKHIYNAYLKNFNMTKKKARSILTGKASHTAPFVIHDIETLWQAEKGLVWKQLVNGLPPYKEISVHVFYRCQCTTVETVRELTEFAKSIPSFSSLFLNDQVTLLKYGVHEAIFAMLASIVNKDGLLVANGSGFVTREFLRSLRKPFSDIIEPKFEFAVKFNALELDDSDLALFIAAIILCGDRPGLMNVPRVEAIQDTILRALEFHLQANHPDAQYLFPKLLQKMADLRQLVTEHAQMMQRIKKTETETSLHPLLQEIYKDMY
Kind of assay: PPAR β/δ reporter counterscreen (Indigo Biosciences kit). The settings on record: receptor agonist at ~EC80 for antagonist potency. The protocol: (§1) To determine species selectivity, a Mouse PPARα Reporter Assay System was used (Indigo Biosciences, Cat. #M00111). Activity of test compounds to antagonize or agonize other isoforms of human PPAR, for example β/δ and γ, were assessed using the corresponding kits from Indigo Biosciences (Cat. #IB00121 and #IB00101, respectively). In addition to PPAR activity, compounds were also screened for activity against other nuclear hormone receptors including Estrogen Receptor β, Glucocorticoid Receptor and Thyroid Receptor β using commercially available kits (Indigo Biosciences, Cat. #IB00411, IB00201 and IB01101, respectively). Each assay system from Indigo Biosciences uses technology analogous to the human
(§2) PPARα kit, with the variance being that the cells used for each assay were engineered to over-express the receptor of interest. In addition, the appropriate receptor agonist (included with each kit) was used at ˜EC80 for assays in which antagonist potency was being assessed.
Background: A counterscreen serves to expose hits that act by an unwanted route or on another target.

The target of the next assay is T3, PPAR gamma (Homo sapiens, UniProt P37231).
T3 construct: host or cells: engineered reporter cells of the kit (analogous to the PPARα kit: non-human mammalian)
T3 sequence (P37231 1-505): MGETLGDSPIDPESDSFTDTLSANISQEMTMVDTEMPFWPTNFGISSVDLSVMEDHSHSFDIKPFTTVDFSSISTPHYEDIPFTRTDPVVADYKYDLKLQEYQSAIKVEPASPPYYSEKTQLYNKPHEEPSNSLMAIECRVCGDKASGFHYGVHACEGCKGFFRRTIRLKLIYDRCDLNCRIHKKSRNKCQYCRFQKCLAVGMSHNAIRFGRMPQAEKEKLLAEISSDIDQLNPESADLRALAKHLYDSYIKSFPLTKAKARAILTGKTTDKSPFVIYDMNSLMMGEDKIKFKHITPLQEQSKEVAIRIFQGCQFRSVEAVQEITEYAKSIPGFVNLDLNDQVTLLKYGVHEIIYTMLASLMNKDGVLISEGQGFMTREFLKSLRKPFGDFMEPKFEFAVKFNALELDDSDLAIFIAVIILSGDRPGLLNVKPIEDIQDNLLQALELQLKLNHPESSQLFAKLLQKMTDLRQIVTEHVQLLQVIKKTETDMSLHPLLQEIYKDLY
Briefly: PPAR γ reporter counterscreen (Indigo Biosciences kit). The settings on record: receptor agonist at ~EC80 for antagonist potency. As to the method: as §1, §2

The next assay has as its target T4, Thyroid Receptor β (Homo sapiens, UniProt P10828).
T4 construct: host or cells: engineered reporter cells of the kit
T4 sequence (P10828 1-461): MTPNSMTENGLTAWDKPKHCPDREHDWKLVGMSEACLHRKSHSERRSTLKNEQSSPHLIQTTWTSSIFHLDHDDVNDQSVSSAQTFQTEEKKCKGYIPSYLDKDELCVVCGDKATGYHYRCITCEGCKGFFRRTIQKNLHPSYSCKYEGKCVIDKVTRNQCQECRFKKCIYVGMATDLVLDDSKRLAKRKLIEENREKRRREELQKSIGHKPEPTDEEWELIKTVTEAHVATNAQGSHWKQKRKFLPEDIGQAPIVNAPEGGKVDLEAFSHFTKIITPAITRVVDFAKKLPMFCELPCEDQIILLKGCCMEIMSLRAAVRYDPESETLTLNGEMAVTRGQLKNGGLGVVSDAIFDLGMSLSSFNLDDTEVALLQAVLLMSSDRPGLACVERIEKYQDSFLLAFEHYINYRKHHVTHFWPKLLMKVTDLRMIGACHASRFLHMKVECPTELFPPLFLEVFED
Briefly: Thyroid Receptor β reporter counterscreen (Indigo Biosciences kit). Particulars: receptor agonist at ~EC80 for antagonist potency. As to the method: as §1, §2

The target of a further assay is T5, Glucocorticoid Receptor (Homo sapiens, UniProt P04150).
T5 construct: host or cells: engineered reporter cells of the kit
T5 sequence (P04150 1-777): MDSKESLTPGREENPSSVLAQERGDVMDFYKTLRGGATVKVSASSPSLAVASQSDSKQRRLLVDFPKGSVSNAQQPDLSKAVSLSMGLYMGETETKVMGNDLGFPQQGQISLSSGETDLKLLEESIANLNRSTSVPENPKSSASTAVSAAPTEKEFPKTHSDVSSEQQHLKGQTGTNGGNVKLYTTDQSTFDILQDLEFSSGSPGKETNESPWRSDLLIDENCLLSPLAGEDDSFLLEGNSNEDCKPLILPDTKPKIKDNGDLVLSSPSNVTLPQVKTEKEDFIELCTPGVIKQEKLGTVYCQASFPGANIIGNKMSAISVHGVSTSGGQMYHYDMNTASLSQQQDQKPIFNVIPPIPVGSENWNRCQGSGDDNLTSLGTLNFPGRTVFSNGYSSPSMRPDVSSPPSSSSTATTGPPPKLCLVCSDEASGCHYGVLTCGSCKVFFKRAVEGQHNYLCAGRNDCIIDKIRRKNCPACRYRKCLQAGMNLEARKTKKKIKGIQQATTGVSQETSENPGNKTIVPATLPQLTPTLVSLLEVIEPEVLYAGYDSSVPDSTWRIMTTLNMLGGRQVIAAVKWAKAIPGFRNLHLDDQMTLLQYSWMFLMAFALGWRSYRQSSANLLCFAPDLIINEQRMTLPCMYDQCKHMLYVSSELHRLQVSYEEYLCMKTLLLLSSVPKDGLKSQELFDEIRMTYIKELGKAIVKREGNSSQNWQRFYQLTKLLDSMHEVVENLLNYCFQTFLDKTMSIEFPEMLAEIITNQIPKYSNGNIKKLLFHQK
Kind of assay: Glucocorticoid Receptor reporter counterscreen (Indigo Biosciences kit). The settings on record: receptor agonist at ~EC80 for antagonist potency. The protocol:
as §1, §2

Another assay has as its target T6, Estrogen Receptor β (Homo sapiens, UniProt Q92731).
T6 construct: host or cells: engineered reporter cells of the kit
Kind of assay: Estrogen Receptor β reporter counterscreen (Indigo Biosciences kit). The settings on record: receptor agonist at ~EC80 for antagonist potency. The protocol:
as §1, §2

pIC50: −log10 of the molar value. Read-outs that look alike come from different tables or passages of the source.

T6 sequence (Q92731 whole entry): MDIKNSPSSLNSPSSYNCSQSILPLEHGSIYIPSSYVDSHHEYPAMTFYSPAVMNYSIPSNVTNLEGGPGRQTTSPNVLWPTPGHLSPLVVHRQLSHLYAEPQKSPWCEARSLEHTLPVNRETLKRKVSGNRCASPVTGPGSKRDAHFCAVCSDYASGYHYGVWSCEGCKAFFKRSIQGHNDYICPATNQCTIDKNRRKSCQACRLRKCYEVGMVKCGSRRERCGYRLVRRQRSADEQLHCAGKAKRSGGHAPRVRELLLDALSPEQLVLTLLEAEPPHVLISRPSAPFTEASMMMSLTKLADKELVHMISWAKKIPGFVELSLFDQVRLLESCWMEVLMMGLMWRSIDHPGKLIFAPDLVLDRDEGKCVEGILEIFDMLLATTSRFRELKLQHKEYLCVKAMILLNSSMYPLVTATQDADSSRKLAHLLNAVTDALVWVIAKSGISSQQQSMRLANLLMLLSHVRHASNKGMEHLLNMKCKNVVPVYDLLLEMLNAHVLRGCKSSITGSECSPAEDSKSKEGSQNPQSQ

Broadly, the pIC50 is the IC50 on a negative log10 scale, so that one unit is a factor of ten. For `CC1(C)C(=O)N(c2ccc(C(F)(F)F)cc2)N=C1CCCc1ccc(OC2(C(=O)O)CCC2)cc1` [Example 50, 1-(4-(3-(4,4-dimethyl-5-oxo-1-(4-(trifluoromethyl)phenyl)-4,5-dihydro-1H-pyrazol-3-yl)propyl)phenoxy)cyclobutanecarboxylic acid], the pIC50 on human PPARα (Target Selectivity - Counterscreen table, read-out: PPAR alpha IC50) was 8.62; at human PPARα (antagonism, luciferase reporter cells, overnight incubation, read-out: PPARα IC50), 8.62; on PPAR beta/delta, 4.66; on PPAR gamma, 4.25; at Thyroid Receptor β, 4.21; at Glucocorticoid Receptor, 4.44. This compound showed a pIC50 at Estrogen Receptor β of 4.44.
